Test [1] concerns the target T1, Protein cereblon/Chromatin remodeling regulator CECR2 (Homo sapiens) (UniProt Q9BXF3+Q96SW2). Briefly: PROTAC activity at human CECR2/CRBN assessed as degradation of protein by measuring unmodified protein at 20 uM by fluorescence-coupled CRBN-based ubiquitination assay.
Test [2] is described as follows: PROTAC activity at human BRD4 BD1/CRBN assessed as ubiquitination level by measuring unmodified protein by […].
The target of test [3] is T2, Protein cereblon/Nucleosome-remodeling factor subunit BPTF (Homo sapiens, UniProt Q12830+Q96SW2). The test can be described thus: PROTAC activity at human BPTF/CRBN in human MV4-11 cells assessed as degradation of protein measured after 24 hrs by immunoblotting analysis. The class given is cell-based.
Target sequence in this assay (Q96SW2 whole entry, looked up, other chains not shown): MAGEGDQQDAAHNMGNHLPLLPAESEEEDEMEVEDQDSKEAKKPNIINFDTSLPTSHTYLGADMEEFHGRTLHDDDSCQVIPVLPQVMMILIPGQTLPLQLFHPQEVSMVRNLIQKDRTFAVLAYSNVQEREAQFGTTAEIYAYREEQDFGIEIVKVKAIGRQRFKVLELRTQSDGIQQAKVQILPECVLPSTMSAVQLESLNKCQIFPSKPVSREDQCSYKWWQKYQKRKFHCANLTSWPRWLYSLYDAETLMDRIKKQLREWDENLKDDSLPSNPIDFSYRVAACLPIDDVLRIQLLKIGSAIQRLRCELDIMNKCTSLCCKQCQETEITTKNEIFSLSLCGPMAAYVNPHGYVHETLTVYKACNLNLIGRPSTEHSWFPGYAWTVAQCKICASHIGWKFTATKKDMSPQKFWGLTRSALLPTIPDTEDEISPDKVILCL
The nature of test [4]: Binding affinity to human BPTF BRD assessed as dissociation constant.
Test [5] deals with T1, Protein cereblon/Chromatin remodeling regulator CECR2 (Homo sapiens). The test can be described thus: PROTAC activity at human CECR2/CRBN in human MV4-11 cells assessed as degradation of protein at 20 uM measured after 24 hrs by immunoblotting analysis. It is filed as cell-based.
Test [6] deals with T2, Protein cereblon/Nucleosome-remodeling factor subunit BPTF. Briefly: PROTAC activity at human BPTF/CRBN assessed as ubiquitination level by measuring unmodified protein by fluorescence-coupled CRBN-based ubiquitination assay.
Target sequence in this assay (Q96SW2 whole entry, looked up, other chains not shown): as above
The target is the same in test [7]. Briefly: PROTAC activity at human BPTF/CRBN in human MV4-11 cells assessed as degradation of protein measured after 24 hrs in presence of pomalidomide by immunoblotting analysis. The class given is cell-based.
Target sequence in this assay (Q96SW2 whole entry, looked up, other chains not shown): as above
The target is the same in test [8]. Briefly: PROTAC activity at human BPTF/CRBN in human MV4-11 cells assessed as degradation of protein pretreated with MLN4924 for 12hrs followed by measured after 24 hrs of compound treatment by immunoblotting analysis. It is filed as cell-based.
Target sequence in this assay (Q96SW2 whole entry, looked up, other chains not shown): as above
Another test deals with MV4-11. Briefly: Antiproliferative activity against human MV4-11 cells assessed as cell viability measured after 6 days by CellTiter-Glo kit. It is filed as functional, cell-based. Conditions: MV4-11, 144 h.
Test [9] addresses T2, Protein cereblon/Nucleosome-remodeling factor subunit BPTF. Briefly: PROTAC activity at human BPTF/CRBN assessed as degradation of protein by measuring unmodified protein by fluorescence-coupled CRBN-based ubiquitination assay.
Target sequence in this assay (Q96SW2 whole entry, other chains not shown): as the sequence (Q96SW2 whole entry, looked up, other chains not shown) above
Test [10] has as its target Protein cereblon/Bromodomain-containing protein 9 (Homo sapiens) (UniProt Q9H8M2+Q96SW2). The test can be described thus: PROTAC activity at human BRD9/CRBN in human MV4-11 cells assessed as degradation of protein at 20 uM measured after 24 hrs by immunoblotting analysis. The class given is cell-based.
Test [11] in a line: Inhibition of human BPTF BRD by HTRF assay.
Test [12] deals with T2, Protein cereblon/Nucleosome-remodeling factor subunit BPTF. Briefly: PROTAC activity at human BPTF/CRBN assessed as ubiquitination level by measuring unmodified protein in presence of pomalidomide by fluorescence-coupled CRBN-based ubiquitination assay.
Target sequence in this assay (Q96SW2 whole entry, looked up, other chains not shown): as above
Test [13] has as its target Protein cereblon/Histone acetyltransferase KAT2B (Homo sapiens) (UniProt Q92831+Q96SW2). The test can be described thus: PROTAC activity at human PCAF/CRBN in human MV4-11 cells assessed as degradation of protein at 20 uM measured after 24 hrs by immunoblotting analysis. The class given is cell-based.
Test [14] concerns the target T2, Protein cereblon/Nucleosome-remodeling factor subunit BPTF. The test can be described thus: PROTAC activity at human BPTF/CRBN in human MV4-11 cells assessed as degradation of protein at 5 uM measured after 24 hrs by immunoblotting analysis. The class given is cell-based.
Target sequence in this assay (Q96SW2 whole entry, looked up, other chains not shown): as above
Test [15] addresses T1, Protein cereblon/Chromatin remodeling regulator CECR2 (Homo sapiens). The test can be described thus: PROTAC activity at human CECR2/CRBN assessed as degradation of protein by measuring unmodified protein at 10 uM by fluorescence-coupled CRBN-based ubiquitination assay.

pIC50, pKd: −log10 of the molar value. Active and inactive are the calls of the source. The calls are words filed in the database; no cut-off is given here.

T1 sequence (Q96SW2 whole entry, looked up): as the sequence (Q96SW2 whole entry, looked up, other chains not shown) above
T1 sequence (Q9BXF3 whole entry, looked up): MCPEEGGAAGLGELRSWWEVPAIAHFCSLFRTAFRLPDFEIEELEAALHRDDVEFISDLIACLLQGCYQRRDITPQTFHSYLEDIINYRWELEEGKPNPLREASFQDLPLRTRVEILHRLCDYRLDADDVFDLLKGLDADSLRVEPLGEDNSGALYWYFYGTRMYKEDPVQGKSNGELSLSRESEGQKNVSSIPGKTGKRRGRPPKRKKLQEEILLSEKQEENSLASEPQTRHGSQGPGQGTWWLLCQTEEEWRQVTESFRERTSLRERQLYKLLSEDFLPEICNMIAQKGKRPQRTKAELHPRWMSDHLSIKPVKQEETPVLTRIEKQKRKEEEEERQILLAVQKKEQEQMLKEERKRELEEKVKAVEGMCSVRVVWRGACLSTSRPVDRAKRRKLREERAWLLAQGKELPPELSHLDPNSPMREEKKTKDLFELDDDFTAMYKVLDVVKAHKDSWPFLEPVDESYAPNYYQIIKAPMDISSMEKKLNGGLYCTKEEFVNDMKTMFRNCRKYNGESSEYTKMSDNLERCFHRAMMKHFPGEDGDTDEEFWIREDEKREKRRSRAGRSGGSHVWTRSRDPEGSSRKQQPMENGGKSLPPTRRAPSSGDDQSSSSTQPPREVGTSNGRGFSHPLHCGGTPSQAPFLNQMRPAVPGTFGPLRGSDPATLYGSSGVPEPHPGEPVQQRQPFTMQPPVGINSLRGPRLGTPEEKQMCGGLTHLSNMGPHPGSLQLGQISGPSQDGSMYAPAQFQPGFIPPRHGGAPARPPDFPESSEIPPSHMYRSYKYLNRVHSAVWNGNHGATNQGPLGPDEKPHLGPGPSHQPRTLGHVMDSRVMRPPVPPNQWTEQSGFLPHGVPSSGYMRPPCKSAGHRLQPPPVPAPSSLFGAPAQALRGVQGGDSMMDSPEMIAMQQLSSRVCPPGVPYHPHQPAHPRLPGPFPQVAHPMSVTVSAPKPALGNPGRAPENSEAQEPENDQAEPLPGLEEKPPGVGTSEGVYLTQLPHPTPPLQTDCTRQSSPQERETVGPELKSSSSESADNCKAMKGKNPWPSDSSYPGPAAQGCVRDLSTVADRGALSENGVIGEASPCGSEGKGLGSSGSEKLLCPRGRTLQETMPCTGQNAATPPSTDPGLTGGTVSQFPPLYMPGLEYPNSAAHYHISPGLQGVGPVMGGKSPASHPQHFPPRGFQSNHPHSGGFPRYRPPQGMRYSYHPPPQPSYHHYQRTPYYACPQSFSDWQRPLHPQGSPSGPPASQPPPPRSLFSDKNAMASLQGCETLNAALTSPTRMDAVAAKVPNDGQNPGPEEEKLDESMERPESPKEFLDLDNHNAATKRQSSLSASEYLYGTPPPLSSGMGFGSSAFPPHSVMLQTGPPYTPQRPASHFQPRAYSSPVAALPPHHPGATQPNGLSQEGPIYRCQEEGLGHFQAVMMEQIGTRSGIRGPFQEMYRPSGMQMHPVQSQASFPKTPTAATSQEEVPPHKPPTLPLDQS
Sequence of Protein cereblon/Histone acetyltransferase KAT2B (Homo sapiens) (Q92831 whole entry, looked up): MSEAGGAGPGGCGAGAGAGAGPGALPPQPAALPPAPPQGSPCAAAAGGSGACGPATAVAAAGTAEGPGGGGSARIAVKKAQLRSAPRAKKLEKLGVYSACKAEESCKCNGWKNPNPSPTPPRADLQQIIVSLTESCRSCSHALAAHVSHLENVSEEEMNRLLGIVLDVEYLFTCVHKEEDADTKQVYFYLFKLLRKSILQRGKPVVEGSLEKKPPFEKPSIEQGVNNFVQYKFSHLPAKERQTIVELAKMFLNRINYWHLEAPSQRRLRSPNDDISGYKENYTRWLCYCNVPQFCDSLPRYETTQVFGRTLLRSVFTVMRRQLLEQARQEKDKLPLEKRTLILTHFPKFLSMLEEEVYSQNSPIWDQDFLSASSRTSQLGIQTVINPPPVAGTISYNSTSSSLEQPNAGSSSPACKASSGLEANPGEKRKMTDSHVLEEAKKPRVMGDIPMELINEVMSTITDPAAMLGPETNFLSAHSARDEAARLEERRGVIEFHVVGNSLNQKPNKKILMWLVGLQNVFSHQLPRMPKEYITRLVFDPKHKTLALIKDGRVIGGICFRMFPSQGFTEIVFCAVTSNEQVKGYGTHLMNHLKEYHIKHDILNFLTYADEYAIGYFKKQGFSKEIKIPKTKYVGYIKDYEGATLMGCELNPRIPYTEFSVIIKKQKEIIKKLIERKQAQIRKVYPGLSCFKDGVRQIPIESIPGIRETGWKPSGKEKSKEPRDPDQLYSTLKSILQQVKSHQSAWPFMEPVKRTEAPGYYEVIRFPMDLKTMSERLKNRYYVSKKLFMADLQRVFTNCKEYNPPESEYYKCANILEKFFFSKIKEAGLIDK
Sequence of Protein cereblon/Histone acetyltransferase KAT2B (Homo sapiens) (Q96SW2 whole entry, looked up): as the sequence (Q96SW2 whole entry, looked up, other chains not shown) above
Sequence of Protein cereblon/Bromodomain-containing protein 9 (Homo sapiens) (Q96SW2 whole entry, looked up): as the sequence (Q96SW2 whole entry, looked up, other chains not shown) above
Sequence of Protein cereblon/Bromodomain-containing protein 9 (Homo sapiens) (Q9H8M2 whole entry, looked up): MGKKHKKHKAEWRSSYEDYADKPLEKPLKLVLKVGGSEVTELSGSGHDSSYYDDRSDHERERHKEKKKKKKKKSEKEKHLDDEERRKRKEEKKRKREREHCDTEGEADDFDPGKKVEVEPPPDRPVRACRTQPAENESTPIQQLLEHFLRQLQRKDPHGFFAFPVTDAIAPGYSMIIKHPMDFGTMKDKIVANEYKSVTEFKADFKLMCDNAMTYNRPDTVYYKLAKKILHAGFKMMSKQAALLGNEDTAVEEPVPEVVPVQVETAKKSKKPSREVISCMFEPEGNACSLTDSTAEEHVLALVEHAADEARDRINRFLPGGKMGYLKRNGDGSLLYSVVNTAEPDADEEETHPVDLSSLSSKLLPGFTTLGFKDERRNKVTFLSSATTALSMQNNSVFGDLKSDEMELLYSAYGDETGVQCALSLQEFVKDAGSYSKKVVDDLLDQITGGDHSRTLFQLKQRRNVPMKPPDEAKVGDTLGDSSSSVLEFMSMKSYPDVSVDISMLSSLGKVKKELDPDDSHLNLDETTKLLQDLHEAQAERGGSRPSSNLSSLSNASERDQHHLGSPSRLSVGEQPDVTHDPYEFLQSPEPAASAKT

Consider `CCCNc1cc(-c2ccc(OCCCN3CCN(C(=O)COc4cccc5c4C(=O)N(C4CCC(=O)NC4=O)C5=O)CC3)c(C#N)c2)nc(S(C)(=O)=O)n1` (stereo unspecified), for which the result in test [1], in test [5], in test [7], in [8], in test [10] and in test [12] was inactive. Besides, the result in [13] was inactive. The pIC50 was 6.17 in [2], 5.57 with MV4-11 and 6.82 in [11]. The Activity entry in [3] was “Dose-dependent-effect”. In addition, in test [4], the pKd was 6.51. In [6], the result was Active. The DC50 in test [9] turned out to be 35.1 nM.
For `CCCNc1cc(-c2ccc(OCCCN3CCN(C(=O)COc4cccc5c4C(=O)N(C4CCC(=O)N(C)C4=O)C5=O)CC3)c(C#N)c2)nc(S(C)(=O)=O)n1` (stereo unspecified), the outcome in [14] and in test [6] was inactive.
Take `CCCNc1cc(-c2ccc(OCCCN3CCN(C(=O)C4CCN(c5cccc6c5C(=O)N(C5CCC(=O)NC5=O)C6=O)CC4)CC3)c(C#N)c2)nc(S(C)(=O)=O)n1` (stereo unspecified): the outcome in [1] and in test [6] was Active.
In the case of `CCCNc1cc(-c2ccc(OCCCN3CCN(C(=O)CCCCNc4cccc5c4C(=O)N(C4CCC(=O)NC4=O)C5=O)CC3)c(C#N)c2)nc(S(C)(=O)=O)n1` (stereo unspecified), in test [15], the outcome was inactive.
`Cc1sc2c(c1C)C(c1ccc(Cl)cc1)=N[C@@H](CC(=O)NCCNc1cccc3c1C(=O)N(C1CCC(=O)NC1=O)C3=O)c1nnc(C)n1-2` (stereo partly specified): the pIC50 in [2] is 6.55.
Regarding `CCCNc1cc(-c2ccc(OCCCN3CCN(C(=O)C4CN(c5cccc6c5C(=O)N(C5CCC(=O)NC5=O)C6=O)C4)CC3)c(C#N)c2)nc(S(C)(=O)=O)n1` (stereo unspecified), the outcome in test [1] was inactive. Also, in test [6], the result was Active. The DC50 in test [9] stood at 44.6 nM.
Take `COC(=O)C[C@@H]1N=C(c2ccc(Cl)cc2)c2c(sc(C(=O)NCCCCCCCCNC(=O)COc3cccc4c3C(=O)N(C3CCC(=O)NC3=O)C4=O)c2C)-n2c(C)nnc21` (stereo partly specified): the pIC50 in test [2] was 5.94.
Same read-out and setting: the value for `Cc1sc2c(c1C)C(c1ccc(Cl)cc1)=N[C@@H](CC(=O)Nc1ccc(OCCOCCOCCOCCNc3cccc4c3C(=O)N(C3CCC(=O)NC3=O)C4=O)cc1)c1nnc(C)n1-2` (stereo partly specified) was 5.90.
Turning to `CCCNc1cc(-c2ccc(OCCCN3CCN(C(=O)CCCCCOc4cccc5c4C(=O)N(C4CCC(=O)NC4=O)C5=O)CC3)c(C#N)c2)nc(S(C)(=O)=O)n1` (stereo unspecified), in [15], the outcome was inactive.
